Measurements from PubChem BioAssay (NCI).
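A five-concentration, 48-hour dose response in 96-well plates underlies each endpoint, interpolated linearly between surrounding concentrations. TGI: total growth inhibition.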

Assays:
Assay in all cases: inhibition of tumour cell growth, NCI panel, 48 h
UACC-62 melanoma = test system: UACC-62 melanoma
SK-MEL-2 melanoma = test system: SK-MEL-2 melanoma
A498 renal = test system: A498 renal
LOX IMVI melanoma = test system: LOX IMVI melanoma
RXF-631 renal = test system: RXF-631 renal
M14 melanoma = test system: M14 melanoma
SF-268 CNS = test system: SF-268 CNS
NCI-H226 lung = test system: NCI-H226 lung
EKVX NSCLC = test system: EKVX NSCLC
HCC-2998 colon = test system: HCC-2998 colon
UO-31 renal = test system: UO-31 renal
SN12C renal = test system: SN12C renal
HCT-116 colon = test system: HCT-116 colon
SNB-75 CNS = test system: SNB-75 CNS
SNB-19 CNS = test system: SNB-19 CNS
ACHN renal = test system: ACHN renal
MALME-3M melanoma = test system: MALME-3M melanoma
DLD-1 colon = test system: DLD-1 colon
IGROV1 ovarian = test system: IGROV1 ovarian
KM20L2 colon = test system: KM20L2 colon
DMS 114 small cell lung = test system: DMS 114 small cell lung
SK-MEL-5 melanoma = test system: SK-MEL-5 melanoma
CCRF-CEM leukemia = test system: CCRF-CEM leukemia
A549 NSCLC = test system: A549 NSCLC
TK-10 renal = test system: TK-10 renal
HCT-15 colon = test system: HCT-15 colon
NCI-H522 lung = test system: NCI-H522 lung
LXFL 529 NSCLC = test system: LXFL 529 NSCLC
RPMI-8226 leukemia = test system: RPMI-8226 leukemia
SK-OV-3 ovarian = test system: SK-OV-3 ovarian
K-562 leukemia = test system: K-562 leukemia
OVCAR-8 ovarian = test system: OVCAR-8 ovarian
SK-MEL-28 melanoma = test system: SK-MEL-28 melanoma
OVCAR-3 ovarian = test system: OVCAR-3 ovarian
SR leukemia = test system: SR leukemia
RXF 393 renal = test system: RXF 393 renal
NCI-H23 lung = test system: NCI-H23 lung
SNB-78 CNS = test system: SNB-78 CNS
XF 498 CNS = test system: XF 498 CNS
DMS 273 small cell lung = test system: DMS 273 small cell lung
KM12 colon = test system: KM12 colon
HL-60(TB) leukemia = test system: HL-60(TB) leukemia
COLO 205 colon = test system: COLO 205 colon
OVCAR-5 ovarian = test system: OVCAR-5 ovarian
MOLT-4 leukemia = test system: MOLT-4 leukemia
CAKI-1 renal = test system: CAKI-1 renal
NCI-H460 lung = test system: NCI-H460 lung
OVCAR-4 ovarian = test system: OVCAR-4 ovarian
SW-620 colon = test system: SW-620 colon
HOP-92 NSCLC = test system: HOP-92 NSCLC
HOP-62 NSCLC = test system: HOP-62 NSCLC
HOP-18 NSCLC = test system: HOP-18 NSCLC
SF-539 CNS = test system: SF-539 CNS
UACC-257 melanoma = test system: UACC-257 melanoma
U251 CNS = test system: U251 CNS
786-0 renal = test system: 786-0 renal
SF-295 CNS = test system: SF-295 CNS
HT29 colon = test system: HT29 colon
M19-MEL melanoma = test system: M19-MEL melanoma

## [O-][n+]1c(-c2ccccc2)oc2ccccc21
UACC-62 melanoma
  TGI: 23.1 µM
SK-MEL-2 melanoma
  TGI: 40.4 µM
A498 renal
  TGI: 34.8 µM
LOX IMVI melanoma
  TGI: 15.7 µM
RXF-631 renal
  TGI: > 100 µM
M14 melanoma
  TGI: 24.8 µM
SF-268 CNS
  TGI: > 100 µM
NCI-H226 lung
  TGI: > 100 µM
EKVX NSCLC
  TGI: 63 µM
HCC-2998 colon
  TGI: 37.8 µM
UO-31 renal
  TGI: 40.3 µM
SN12C renal
  TGI: 29 µM
HCT-116 colon
  TGI: 41.9 µM
SNB-75 CNS
  TGI: 32.7 µM
SNB-19 CNS
  TGI: > 65.1 µM
ACHN renal
  TGI: 39.4 µM
MALME-3M melanoma
  TGI: 28.1 µM
DLD-1 colon
  TGI: > 59.5 µM
IGROV1 ovarian
  TGI: > 100 µM
KM20L2 colon
  TGI: 43.1 µM
DMS 114 small cell lung
  TGI: 16.4 µM
SK-MEL-5 melanoma
  TGI: 6.81 µM
CCRF-CEM leukemia
  TGI: > 100 µM
A549 NSCLC
  TGI: 17.9 µM
TK-10 renal
  TGI: 47.7 µM
HCT-15 colon
  TGI: 24.3 µM
NCI-H522 lung
  TGI: 17.5 µM
LXFL 529 NSCLC
  TGI: > 94.4 µM
RPMI-8226 leukemia
  TGI: > 69.2 µM
SK-OV-3 ovarian
  TGI: > 100 µM
K-562 leukemia
  TGI: > 100 µM
OVCAR-8 ovarian
  TGI: > 100 µM
SK-MEL-28 melanoma
  TGI: 36.6 µM
OVCAR-3 ovarian
  TGI: 65.9 µM
SR leukemia
  TGI: > 100 µM
RXF 393 renal
  TGI: 55.6 µM
NCI-H23 lung
  TGI: 38.7 µM
SNB-78 CNS
  TGI: 97.1 µM
XF 498 CNS
  TGI: > 100 µM
DMS 273 small cell lung
  TGI: 28 µM
KM12 colon
  TGI: > 100 µM
HL-60(TB) leukemia
  TGI: 79.9 µM
COLO 205 colon
  TGI: 33.6 µM
OVCAR-5 ovarian
  TGI: 67.1 µM
MOLT-4 leukemia
  TGI: > 100 µM
CAKI-1 renal
  TGI: > 55.7 µM
NCI-H460 lung
  TGI: 20.2 µM
OVCAR-4 ovarian
  TGI: > 68 µM
SW-620 colon
  TGI: 39.1 µM
HOP-92 NSCLC
  TGI: > 100 µM
HOP-62 NSCLC
  TGI: 35.2 µM
HOP-18 NSCLC
  TGI: 20.1 µM
SF-539 CNS
  TGI: 31.5 µM
UACC-257 melanoma
  TGI: 22.6 µM
U251 CNS
  TGI: > 85.8 µM
786-0 renal
  TGI: 62.4 µM
SF-295 CNS
  TGI: 27.6 µM
HT29 colon
  TGI: 59.1 µM
M19-MEL melanoma
  TGI: 3.59 µM
